Assay: mn = molality of the nth substance listed, in mol/kg
Conditions: 350 kPa, Liquid; for apparent molar heat capacity: Extra sensitive DSC

OCC(O)CO [glycerol] + O
Conditions | apparent molar heat capacity [J/K/mol] | mass density [kg/m3]
278.15 K, m1 = 0.02 | 210 | 1000.56
278.15 K, m1 = 0.05 | 208 | 1001.19
278.15 K, m1 = 0.1 | 208.3 | 1002.32
278.15 K, m1 = 0.2501 | 206.7 | 1005.96
278.15 K, m1 = 0.5002 | 206 | 1011.28
278.15 K, m1 = 1.001 | 203.2 | 1021.37
278.15 K, m1 = 2 | 200 | 1040.06
278.15 K, m1 = 3.003 | 192.1 | 1056.11
278.15 K, m1 = 4.999 | 196.4 | 1082.51
283.15 K, m1 = 0.02 | 220 | 1000.32
283.15 K, m1 = 0.05 | 219 | 1000.93
283.15 K, m1 = 0.1 | 219.7 | 1002.05
283.15 K, m1 = 0.2501 | 218.3 | 1005.34
283.15 K, m1 = 0.5002 | 217.4 | 1010.56
283.15 K, m1 = 1.001 | 215.1 | 1020.54
283.15 K, m1 = 2 | 212.1 | 1038.67
283.15 K, m1 = 3.003 | 206.8 | 1054.65
283.15 K, m1 = 4.999 | 207.4 | 1080.68
288.15 K, m1 = 0.02 | 229 | 999.7
288.15 K, m1 = 0.05 | 227 | 1000.3
288.15 K, m1 = 0.1 | 227.7 | 1001.41
288.15 K, m1 = 0.2501 | 226.4 | 1004.63
288.15 K, m1 = 0.5002 | 225.6 | 1009.79
288.15 K, m1 = 1.001 | 223.5 | 1019.64
288.15 K, m1 = 2 | 220.6 | 1037.48
288.15 K, m1 = 3.003 | 215.7 | 1053.13
288.15 K, m1 = 4.999 | 215.28 | 1078.92
293.15 K, m1 = 0.02 | 235 | –
293.15 K, m1 = 0.05 | 233 | –
293.15 K, m1 = 0.1 | 234 | –
293.15 K, m1 = 0.2501 | 233 | –
293.15 K, m1 = 0.5002 | 232.3 | –
293.15 K, m1 = 1.001 | 230.4 | –
293.15 K, m1 = 2 | 227.5 | –
293.15 K, m1 = 3.003 | 222.75 | –
293.15 K, m1 = 4.999 | 221.83 | –
298.15 K, m1 = 0.02 | 240 | 997.59
298.15 K, m1 = 0.05 | 239 | 998.2
298.15 K, m1 = 0.1 | 239.7 | 999.29
298.15 K, m1 = 0.2501 | 238.6 | 1002.43
298.15 K, m1 = 0.5002 | 238 | 1007.48
298.15 K, m1 = 1.001 | 236.1 | 1017.07
298.15 K, m1 = 2 | 233.27 | 1034.46
298.15 K, m1 = 3.003 | 228.47 | 1049.73
298.15 K, m1 = 4.999 | 227.35 | 1074.96
303.15 K, m1 = 0.02 | 245 | –
303.15 K, m1 = 0.05 | 244 | –
303.15 K, m1 = 0.1 | 244.7 | –
303.15 K, m1 = 0.2501 | 243.6 | –
303.15 K, m1 = 0.5002 | 243 | –
303.15 K, m1 = 1.001 | 241.1 | –
303.15 K, m1 = 2 | 238.33 | –
303.15 K, m1 = 3.003 | 233.46 | –
303.15 K, m1 = 4.999 | 232.27 | –
308.15 K, m1 = 0.02 | 249 | 994.55
308.15 K, m1 = 0.05 | 248.4 | 995.16
308.15 K, m1 = 0.1 | 249 | 996.23
308.15 K, m1 = 0.2501 | 247.9 | 999.33
308.15 K, m1 = 0.5002 | 247.4 | 1004.29
308.15 K, m1 = 1.001 | 245.5 | 1013.67
308.15 K, m1 = 2 | 242.76 | 1030.71
308.15 K, m1 = 3.003 | 237.83 | 1045.67
308.15 K, m1 = 4.999 | 236.6 | 1070.41
313.15 K, m1 = 0.02 | 253 | –
313.15 K, m1 = 0.05 | 252.1 | –
313.15 K, m1 = 0.1 | 252.9 | –
313.15 K, m1 = 0.2501 | 251.9 | –
313.15 K, m1 = 0.5002 | 251.3 | –
313.15 K, m1 = 1.001 | 249.4 | –
313.15 K, m1 = 2 | 246.75 | –
313.15 K, m1 = 3.003 | 241.83 | –
313.15 K, m1 = 4.999 | 240.56 | –
318.15 K, m1 = 0.02 | 257 | 990.73
318.15 K, m1 = 0.05 | 255.7 | 991.32
318.15 K, m1 = 0.1 | 256.3 | 992.37
318.15 K, m1 = 0.2501 | 255.4 | 995.42
318.15 K, m1 = 0.5002 | 254.8 | 1000.34
318.15 K, m1 = 1.001 | 252.98 | 1009.55
318.15 K, m1 = 2 | 250.33 | 1026.3
318.15 K, m1 = 3.003 | 245.4 | 1041.09
318.15 K, m1 = 4.999 | 244.12 | 1065.4
323.15 K, m1 = 0.02 | 260 | –
323.15 K, m1 = 0.05 | 258.8 | –
323.15 K, m1 = 0.1 | 259.4 | –
323.15 K, m1 = 0.2501 | 258.6 | –
323.15 K, m1 = 0.5002 | 258 | –
323.15 K, m1 = 1.001 | 256.23 | –
323.15 K, m1 = 2 | 253.61 | –
323.15 K, m1 = 3.003 | 248.72 | –
323.15 K, m1 = 4.999 | 247.42 | –
328.15 K, m1 = 0.02 | 263 | 986.19
328.15 K, m1 = 0.05 | 261.7 | 986.78
328.15 K, m1 = 0.1 | 262.3 | 987.77
328.15 K, m1 = 0.2501 | 261.5 | 990.83
328.15 K, m1 = 0.5002 | 261 | 995.67
328.15 K, m1 = 1.001 | 259.22 | 1004.79
328.15 K, m1 = 2 | 256.62 | 1021.31
328.15 K, m1 = 3.003 | 251.8 | 1035.9
328.15 K, m1 = 4.999 | 250.48 | 1059.9
333.15 K, m1 = 0.02 | 266 | –
333.15 K, m1 = 0.05 | 264.5 | –
333.15 K, m1 = 0.1 | 265 | –
333.15 K, m1 = 0.2501 | 264.3 | –
333.15 K, m1 = 0.5002 | 263.72 | –
333.15 K, m1 = 1.001 | 262 | –
333.15 K, m1 = 2 | 259.44 | –
333.15 K, m1 = 3.003 | 254.69 | –
333.15 K, m1 = 4.999 | 253.36 | –
338.15 K, m1 = 0.02 | 268.5 | 981.05
338.15 K, m1 = 0.05 | 267 | 981.63
338.15 K, m1 = 0.1 | 267.6 | 982.65
338.15 K, m1 = 0.2501 | 266.8 | 985.63
338.15 K, m1 = 0.5002 | 266.28 | 990.4
338.15 K, m1 = 1.001 | 264.6 | 999.46
338.15 K, m1 = 2 | 262.07 | 1015.84
338.15 K, m1 = 3.003 | 257.43 | 1030.29
338.15 K, m1 = 4.999 | 256.04 | 1054
343.15 K, m1 = 0.02 | 270.6 | –
343.15 K, m1 = 0.05 | 269.2 | –
343.15 K, m1 = 0.1 | 269.8 | –
343.15 K, m1 = 0.2501 | 269.15 | –
343.15 K, m1 = 0.5002 | 268.63 | –
343.15 K, m1 = 1.001 | 266.97 | –
343.15 K, m1 = 2 | 264.48 | –
343.15 K, m1 = 3.003 | 259.94 | –
343.15 K, m1 = 4.999 | 258.51 | –
348.15 K, m1 = 0.02 | 272.9 | 975.36
348.15 K, m1 = 0.05 | 271.3 | 975.93
348.15 K, m1 = 0.1 | 271.9 | 976.93
348.15 K, m1 = 0.2501 | 271.31 | 979.9
348.15 K, m1 = 0.5002 | 270.82 | 984.63
348.15 K, m1 = 1.001 | 269.16 | 993.59
348.15 K, m1 = 2 | 266.71 | 1009.84
348.15 K, m1 = 3.003 | 262.29 | 1024.18
348.15 K, m1 = 4.999 | 260.82 | 1047.69
353.15 K, m1 = 0.02 | 274.8 | –
353.15 K, m1 = 0.05 | 273.1 | –
353.15 K, m1 = 0.1 | 273.9 | –
353.15 K, m1 = 0.2501 | 273.26 | –
353.15 K, m1 = 0.5002 | 272.82 | –
353.15 K, m1 = 1.001 | 271.17 | –
353.15 K, m1 = 2 | 268.75 | –
353.15 K, m1 = 3.003 | 264.53 | –
353.15 K, m1 = 4.999 | 262.96 | –
358.15 K, m1 = 0.02 | 276.3 | 969.12
358.15 K, m1 = 0.05 | 274.7 | 969.7
358.15 K, m1 = 0.1 | 275.6 | 970.69
358.15 K, m1 = 0.2501 | 274.92 | 973.64
358.15 K, m1 = 0.5002 | 274.47 | 978.33
358.15 K, m1 = 1.001 | 272.82 | 987.24
358.15 K, m1 = 2 | 270.44 | 1003.38
358.15 K, m1 = 3.003 | 266.6 | 1017.63
358.15 K, m1 = 4.999 | 264.75 | 1041.02
363.15 K, m1 = 0.02 | 277.1 | –
363.15 K, m1 = 0.05 | 275.5 | –
363.15 K, m1 = 0.1 | 276.5 | –
363.15 K, m1 = 0.2501 | 275.65 | –
363.15 K, m1 = 0.5002 | 275.17 | –
363.15 K, m1 = 1.001 | 273.45 | –
363.15 K, m1 = 2 | 271.04 | –
363.15 K, m1 = 3.003 | 268.61 | –
363.15 K, m1 = 4.999 | 265.49 | –
368.15 K, m1 = 0.02 | – | 962.42
368.15 K, m1 = 0.05 | – | 963
368.15 K, m1 = 0.1 | – | 963.94
368.15 K, m1 = 0.2501 | – | 966.88
368.15 K, m1 = 0.5002 | – | 971.55
368.15 K, m1 = 1.001 | – | 980.42
368.15 K, m1 = 2 | – | 996.47
368.15 K, m1 = 3.003 | – | 1010.68
368.15 K, m1 = 4.999 | – | 1033.93

Reference: the NIST ThermoML archive (doi:10.1016/j.jct.2006.08.009)
